Reference: patent US20230167088A1, “1-PYRAZINYLPYRAZOLYL-3-OXYALKYL ACIDS AND THEIR DERIVATIVES, AND THEIR USE FOR CONTROL OF UNDESIRED PLANT GROWTH” (BAYER AKTIENGESELLSCHAFT, priority 2020, published 2023)

Tests used:
ALOMY [1] = test: Herbicidal post-emergence action 1a (greenhouse pots, visual rating); format: in vivo, Alopecurus myosuroides; settings: rated visually about 3 weeks after treatment, 100% = plants have died, 0% = like control plants
Summary of the method: (§1)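 Visual scoring versus untreated plants (100% = plants dead, 0% = as control) followed roughly 3 weeks in the greenhouse after treatment. Plants grown in sandy loam pots had been sprayed on green parts at the one-leaf stage, 2–3 weeks post-sowing, with aqueous WP/EC preparations containing 0.5% additive, 600 l/ha, at 320 and/or 80 g/ha.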

DIGSA = test: as above; format: in vivo, Digitaria sanguinalis; settings: rated visually about 3 weeks after treatment, 100% = plants have died, 0% = like control plants
Summary of the method: as §1

LOLRI = test: as above; format: in vivo, Lolium rigidum; settings: rated visually about 3 weeks after treatment, 100% = plants have died, 0% = like control plants
Summary of the method: as §1

ABUTH = test: as above; format: in vivo, Abutilon theophrasti; settings: visual rating about 3 weeks after treatment
Summary of the method: as §1

PHBPU = test: as above; format: in vivo, Pharbitis purpurea; settings: visual rating about 3 weeks after treatment
Summary of the method: as §1

POLCO = test: as above; format: in vivo, Polygonum convolvulus; settings: visual rating about 3 weeks after treatment
Summary of the method: as §1

VIOTR [2] = test: as above; format: in vivo, Viola tricolor; settings: visual rating about 3 weeks after treatment
Summary of the method: as §1

ALOMY [3] = test: Herbicidal pre-emergence action 2a (greenhouse pots, visual scoring); format: in vivo, Alopecurus myosuroides; settings: dosage 320 g/ha, visual scoring after about 3 weeks
Summary of the method: (§2)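 Visual percent rating, ~3 weeks after treatment, untreated pots as reference (0% = control-like, 100% = killed). Application: formulated compound on soil surface over seeds, 320 g/ha and/or 80 g/ha.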

AVEFA = test: as above; format: in vivo, Avena fatua; settings: dosage 320 g/ha, visual scoring after about 3 weeks
Summary of the method: as §2

ECHCG = test: as above; format: in vivo, Echinochloa crus-galli; settings: dosage 320 g/ha, visual scoring after about 3 weeks
Summary of the method: as §2

MATIN [4] = test: as above; format: in vivo, Matricaria inodora; settings: dosage 320 g/ha, visual scoring after about 3 weeks vs untreated controls
Summary of the method: as §2

VIOTR [5] = test: as above; format: in vivo, Viola tricolor; settings: dosage 320 g/ha, visual scoring after about 3 weeks vs untreated controls
Summary of the method: as §2

VERPE = test: as above; format: in vivo, Veronica persica; settings: dosage 320 g/ha, visual scoring after about 3 weeks vs untreated controls
Summary of the method: as §2

POAAN = test: Herbicidal pre-emergence action 2b (doubly sown, 1280 g/ha); format: in vivo, Poa annua; settings: doubly sown pots, dosage 1280 g/ha, visual scoring after about 3 weeks
Summary of the method: (§3)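 Compounds were sprayed pre-emergence as wettable powders or emulsion concentrates onto soil covering freshly sown weed seeds, two species per pot. Percent activity was judged by eye roughly 3 weeks later versus untreated plants.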

MATIN [6] = test: as above; format: in vivo, Matricaria inodora; settings: doubly sown pots, dosage 1280 g/ha, visual scoring after about 3 weeks
Summary of the method: as §3

harmful plants = test: Herbicidal post-emergence action 1a, summary across species; format: in vivo; settings: Tables A1 to A15 (320 g/ha and/or 80 g/ha)

| SMILES | Post-emergence action against ALOMY in % (ALOMY [1]; Dosage 80 g/ha) | Post-emergence action against ALOMY in % (ALOMY [1]; Dosage 320 g/ha) | Post-emergence action against DIGSA in % (DIGSA; Dosage 80 g/ha) | Post-emergence action against DIGSA in % (DIGSA; Dosage 320 g/ha) | Post-emergence action against LOLRI in % (LOLRI; Dosage 320 g/ha) | Post-emergence action against ABUTH in % (ABUTH; dosage 80 g/ha) | Post-emergence action against ABUTH in % (ABUTH; dosage 320 g/ha) | Post-emergence action against PHBPU in % (PHBPU; dosage 320 g/ha) | Post-emergence action against POLCO in % (POLCO; dosage 320 g/ha) | Post-emergence action against VIOTR in % (VIOTR [2]; dosage 80 g/ha) | Pre-emergence action against ALOMY in % (ALOMY [3]) | Pre-emergence action against AVEFA in % (AVEFA) | Pre-emergence action against ECHCG in % (ECHCG) | Pre-emergence action against MATIN in % (MATIN [4]) | Pre-emergence action against VIOTR in % (VIOTR [5]) | Pre-emergence action against VERPE in % (VERPE) | Pre-emergence action at 1280 g/ha against POAAN in % (POAAN) | Pre-emergence action at 1280 g/ha against MATIN in % (MATIN [6]) | herbicidal efficacy against harmful plants in the case of post-emergence treatment (in words) (harmful plants) | Post-emergence action against VIOTR in % (VIOTR [2]; dosage 320 g/ha) | also measured |
| --- | --- | --- | --- | --- | --- | --- | --- | --- | --- | --- | --- | --- | --- | --- | --- | --- | --- | --- | --- | --- | --- |
| COC(=O)[C@@H](C)Oc1nn(-c2cnccn2)c(-c2cccc(F)c2)c1Br [Example I-20] | 80% | 90% | 80% | 90% | 100% | 80% | 90% | 90% | 80% | 80% | 90% | 80% | 90% | 90% | 90% | 100% | 100% | 100% | good herbicidal efficacy | – | Post-emergence action against LOLRI in % (LOLRI; Dosage 80 g/ha): 90% |
| COC(=O)[C@@H](C)Oc1nn(-c2cnccn2)c(-c2cncc(F)c2)c1Br [Example I-39] | 90% | 100% | 80% | 90% | 90% | 80% | 80% | 90% | 90% | 80% | 100% | 90% | 100% | 90% | 100% | 100% | 100% | 100% | good herbicidal efficacy | 90% | Post-emergence action against LOLRI in % (LOLRI; Dosage 80 g/ha): 90%; Post-emergence action against PHBPU in % (PHBPU; dosage 80 g/ha): 80% |
| C[C@H](Oc1nn(-c2cnccn2)c(-c2cncc(F)c2)c1Br)C(=O)O [Example I-37] | 90% | 100% | – | 90% | 90% | 80% | 80% | 80% | 100% | 80% | 100% | 90% | 90% | 90% | 100% | 100% | 100% | 100% | good herbicidal efficacy | 90% | – |
| COC(=O)[C@@H](C)Oc1nn(-c2cnccn2)c(-c2ccc(F)nc2)c1Cl [Example I-36] | – | 100% | 80% | 90% | 90% | – | 80% | 90% | 100% | 90% | 100% | 100% | 100% | 80% | 100% | 100% | 100% | 90% | good herbicidal efficacy | 90% | Post-emergence action against PHBPU in % (PHBPU; dosage 80 g/ha): 90%; Post-emergence action against POLCO in % (POLCO; dosage 80 g/ha): 90% |
